From PubChem BioAssay (NCI)
Several values for one entry are separate records, joined by “and”; a condition that tells them apart may be missing. Equal values may be shown once.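 48-hour exposure; five concentrations; linearly interpolated endpoints. GI50 = concentration required for 50% inhibition of growth. TGI is the concentration that stops growth completely.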 *1 amine or outer side, *2 acyl side, *3 side chain or, on linkers, in order; H or OH if unused. Where a SMILES comes first, the peptide text is derived from it. Bridges are numbered along the chain shown (N, C = ends). [ ]: non-standard residue; d: D form. The star is where a group is joined. ξ: configuration not given here. X4 = CCC(C)C(N[*:1])C(O)CC(=O)O[C@H](C(=O)C(C)C(=O)[*:2])C(C)C; NMeY = CN[C@@H](Cc1ccc(O)cc1)C(=O)O; ξNMeL = CNC(CC(C)C)C(=O)O; Cbz = O=C(OCc1ccccc1)*; Boc = CC(C)(C)OC(=O)*; Aib = CC(C)(N)C(=O)O; ξT = CC(O)C(N)C(=O)O; OBn = c1ccc(CO*)cc1; OtBu = CC(C)(C)O*; βAla = NCCC(=O)O

Legend:
Assay in all cases: NCI anticancer screen, dose series, 48 h
[1] = test system: SK-MEL-5 melanoma
[2] = test system: MCF7 breast
[3] = test system: SK-MEL-2 melanoma
[4] = test system: SF-539 CNS
[5] = test system: UACC-257 melanoma
[6] = test system: A498 renal
[7] = test system: IGROV1 ovarian
[8] = test system: SNB-19 CNS
[9] = test system: NCI-H226 lung
[10] = test system: SK-MEL-28 melanoma

Row | SMILES | TGI [1] [µM] | TGI [2] [µM] | TGI [3] [µM] | TGI [4] [µM] | TGI [5] | TGI [6] | TGI [7] [µM] | TGI [8] [µM] | TGI [9] [µM] | TGI [10] [µM] | GI50 [1] [µM] | GI50 [2] [µM] | GI50 [3] [µM] | GI50 [6] [µM] | GI50 [7] [µM] | GI50 [8] [µM]
1 | CSc1ncc2c(n1)-c1ccccc1OC2N1CCCC1 (stereo not given) | > 100 | > 100 | > 100 | > 100 | > 100 µM | 26.1 µM | > 100 | > 100 | > 100 | – | – | – | – | – | – | –
2 | CCOC(=O)c1c(N2CCOCC2)[nH]c(=O)c(C(c2ccc(OC)cc2)c2c(O)c(C(=O)OCC)c(N3CCOCC3)[nH]c2=O)c1O | > 100 | > 100 | – | > 100 | > 100 µM | > 100 µM | – | > 100 | > 100 | > 100 | – | – | – | – | – | –
3 | CCOC(=O)c1sc2c(c1OC(=O)c1ccccc1)c(=O)n(-c1ccccc1)c(=S)n2-c1ccccc1 | 49.7 | > 100 | – | 47.7 | > 100 µM | 31 µM | 43.3 | > 100 | > 100 | > 100 | – | – | – | – | – | –
4 | COc1cc(/C=C2/SC(c3ccccc3)N(c3cccc([N+](=O)[O-])c3)C2=O)cc(OC)c1OC (stereo not given) | > 100 | > 100 | > 100 | > 100 | > 100 µM | > 100 µM | – | > 100 | > 100 | > 100 | – | – | – | – | – | –
5 | CC(C)(C)OC(=O)CC(NC(=O)OC(C)(C)C)C(=O)NC(CCCCNC(=O)OCc1ccccc1)C(=O)NC(C)(C)C(=O)NCCC(=O)OCc1ccccc1 (stereo not given) (Boc-D(OtBu)K(Cbz)[Aib][βAla]-OBn; configuration not given here) | > 100 | > 100 | – | > 100 | – | > 100 µM | > 100 | > 100 | > 100 | > 100 | – | – | – | – | – | –
6 | COc1cc2ccnc3c2c(c1O)N(C)C=C3 | 32.5 | > 91.6 | 33.9 | – | 32.5 µM | 23.4 µM | 26.1 | > 62.9 | 37.4 | > 66.2 | – | – | – | – | – | –
7 | NC(=O)CC(Nc1ncc2c(n1)-c1ccccc1OC2)C(=O)O (stereo not given) | > 100 | > 100 | > 100 | > 100 | > 100 µM | – | > 100 | > 100 | > 100 | > 100 | – | – | – | – | – | –
8 | CCCCSc1n/c(=C\c2ccc(N(C)C)cc2)c2nnnn12 | – | > 100 | > 100 | > 100 | > 100 µM | > 100 µM | > 100 | > 100 | > 100 | > 100 | – | – | – | – | – | –
9 | NC(CCCCNC(=O)OCc1ccccc1)C(=O)NC(CCCCNC(=O)OCc1ccccc1)C(=O)ON1C(=O)CCC1=O (stereo not given) | > 100 | > 100 | > 100 | – | > 100 µM | > 100 µM | > 100 | > 100 | > 100 | > 100 | – | – | – | – | – | –
10 | O=C(N=Nc1ccccc1Br)NNc1ccccc1Br | > 100 | – | > 100 | – | > 100 µM | > 100 µM | > 100 | > 100 | > 100 | > 100 | – | – | – | – | – | –
11 | CCOC(=O)C(C(=O)Cc1ccccc1)c1ccccc1 (stereo not given) | > 100 | – | > 100 | > 100 | > 100 µM | – | > 100 | > 100 | > 100 | > 100 | – | – | – | – | – | –
12 | CSc1nncc(-c2cc3c(c(SC)n2)CCC3)n1 | > 100 | – | > 100 | – | > 100 µM | – | 10.1 | > 100 | > 100 | > 100 | – | – | – | – | – | –
13 | COc1c/c(=C2/C=c3ccccc3=N2)[nH]/c1=C/c1[nH]c(C)cc1C | 0.0835 | 2.58 | 0.119 | – | – | 4.31 µM | > 100 | > 100 | – | – | 0.0304 | 0.0647 | 0.029 | 0.267 | 0.0724 | 0.598
14 | CCC(C)C1NC(=O)C(NC(=O)C(CC(C)C)N(C)C(=O)[C@@H]2CCCN2)C(C)OC(=O)[C@H](Cc2ccc(OC)cc2)N(C)C(=O)[C@@H]2CCCN2C(=O)[C@H](CC(C)C)NC(=O)C(C)C(=O)[C@H](C(C)C)OC(=O)CC1O (stereo not given in full) (H-P[ξNMeL][ξT][X4]LP[NMeY](Me); ester 3-C) | 0.00748 | – | – | 0.00208 | 0.00814 µM and 0.0465 µM | 0.0372 µM and 0.15 µM | 0.0107 | 0.0398 | – | 0.00179 | – | – | – | – | – | –
15 | COC(=O)C1(C(=O)OC)N=C(C)OC1C(C)C (stereo not given) | > 100 | > 100 | > 100 | – | > 100 µM | > 100 µM | – | > 100 | > 100 | > 100 | – | – | – | – | – | –
16 | CC1(C)[C@@H]2C[C@H]1c1cnc(-c3ccccn3)cc1C2[C@@H]1c2cc(-c3ccccn3)ncc2[C@@H]2C[C@H]1C2(C)C (stereo not given in full) | > 100 | > 100 | > 100 | – | > 100 µM | > 100 µM | > 100 | > 100 | > 100 | > 100 | – | – | – | – | – | –
17 | CCCCCCCCCCCCCCCCNc1nc(=O)n(C2CC(O)C(CO)O2)cc1F (stereo not given) | 48.1 | 19.9 | 40.3 | 11.4 | 33.9 µM | – | 27.6 | 34.6 | 10.8 | 28.4 | – | – | – | – | – | –
18 | N#CCCN(CCCN(C(=O)Nc1ccccc1)c1ccccc1)C(=O)Nc1ccccc1 | > 100 | > 100 | > 100 | > 100 | > 100 µM | – | > 100 | > 100 | > 100 | > 100 | – | – | – | – | – | –
19 | O=C(NNC(=S)Nc1ccccc1)c1csc(NC(=S)NC2CCCCC2)n1 | 38.8 | > 100 | > 100 | > 100 | 56.8 µM | > 100 µM | > 100 | – | – | – | – | – | – | – | – | –
20 | O=C1[C@@H]2Cc3c([nH]c4ccccc34)C(C3CCCCC3)N2C(=O)[C@@H]2CCCN12 (stereo not given in full) | 35.7 | > 100 | 39.7 | – | 80.7 µM | > 100 µM | > 100 | > 100 | > 100 | > 100 | – | – | – | – | – | –
21 | CC(C)(C)OC(=O)N1C(OP(=O)(Oc2ccccc2)Oc2ccccc2)=COc2cccnc21 | 35.5 | > 100 | 55.7 | > 100 | > 100 µM | – | > 100 | > 100 | > 100 | > 100 | – | – | – | – | – | –
22 | O=C1NC(N/N=C\c2ccccc2)=N/C1=C/c1ccc(Cl)cc1 | 43.9 | 57.4 | 82.9 | 53.8 | > 100 µM | – | 41.2 | 35.9 | 43.3 | > 100 | – | – | – | – | – | –
